From patent US8841285B2, “Potent immunosuppressive agents, derivatives and uses” (priority 2002, dated 2014)

Legend:
[1] = test system: RKO cells; test: cell proliferation assay, RKO cells; assay type: cell-based; conditions: Homo sapiens
Procedure: Cell Proliferation Assay. 1×10^5 of indicated cells in each well of a 96-well plate were treated with indicated compounds for 24 h followed by addition of 0.11 μCi of [^3H]-thymidine (6.7 Ci/mmol) per well for 6 h, followed by harvesting to GF/C filtermats using a cell harvester. Filtermats were air-dried and scintillation counted. IC50s were determined from quadruplicate data readings and curve-fitting analysis.

[2] = test system: HeLa cells; assay type: cell-based
[3] = test system: 293T cells; test: cellular polyribosome profiles; assay type: cell-based; conditions: 30 min treatment
Procedure: Cellular polyribosome profiles. 293T cells were treated as indicated for 30 min. Cells were washed twice with ice-cold PBS and pipetted for 5 min in 500 μl of chilled TMK100 buffer (20 mM Tris-HCl pH 7.4, 5 mM MgCl2 100 mM KCl, 2 mM DTT, 1% Triton X-100 and 100 U/ml RNAsin in DEPC water). After clearing at 10,000×g (10 min) at 4° C., the supernatant (S10) was layered onto 11 ml, 15-45% linear sucrose gradient containing 20 mM HEPES pH 7.4, 100 mM KCl, 5 mM MgCl2 and 2 mM DTT. Ultracentrifugation at 40,000 rpm for 1.5 h at 4° C. was performed in a suitable rotor. Fractions were collected from the top of the gradient by injection of Flurinert FC-40 from bottom of centrifuge tube. Gradient profiles were monitored at 254 nm. For immunoblotting, 7 mg of total protein were processed as described above, followed by collection of 500 μl fractions were collected from the top. 100 μl aliquots of each were boiled in SDS sample buffer, followed by SDS-PAGE and immunoblotting.

[4] = test system: cap-dependent translation; test: in vitro translation in RRL, bicistronic reporter, cap-dependent cistron; assay type: biochemical, rabbit; conditions: HCV IRES bicistronic reporter
Procedure: In vitro Translation and Transcription. pSP/(CAG)33/FF/HCV/Ren·pA51 and pKS/FF/EMC/Ren were linearized by BamHI, then purified by phenol:chloroform extraction and ethanol precipitation, and dissolved in water. pSP/(CAG)33/FF/HCV/Ren·A51 and pKS/FF/EMC/Ren were individually transcribed using a large scale RNA production system in the presence of m7Gppp cap analog followed by incubation with DNase as described by the manufacturer. Resulting RNA was purified using a kit as described by the manufacturer. Translation was performed using a rabbit reticulocyte lysate system as per instructions. Briefly, 200 ng of purified RNA was combined in a 20 μl reaction containing 10 μl RRL, 0.2 μl each of minus Met and minus Leu amino acid mixtures, 70 mM KCl, 2 mM DTT, 1× translation buffer, and 10 units of RNasin. Compounds or DMSO were added to a final DMSO concentration of 2%. Reactions were incubated at 30° C. for 1.5 h, then 5 μl of the reaction mixture was assayed for luciferase activity as per instructions of luciferas reporter assay system.

Row | Molecule | IC50 [1] [µM] | stress granule formation [2] | effect on polysome profile [3] | inhibition of cap- versus HCV IRES-dependent translation [4]
1 | CC(/C=C/C(C)=C/[C@@H]1Cc2nc(cs2)[C@@H](C)CC(NCC(=O)NCCOCCOCCNC(=O)CCCC[C@@H]2SCC3NC(=O)NC32)CC(=O)O[C@@H](C)C/C(C)=C/C=C\C(=O)O1)=C\CN(C)C (some centres unmarked) [B-PatA, Biotin-PEO-Pateamine A] | < 0.015 | – | – | –
2 | C[C@@H]1C[C@@H]([C@H](O)CC2CC(=O)NC(=O)C2)C(=O)[C@@H](C)C1 [CHX, cycloheximide] | – | did not induce stress granule formation | did not perturb the sucrose gradient profile | nearly equal inhibition
3 | arsenite | – | eIF4B co-localized with TIA-1 in stress granules | – | –
